Test results published in patent EP0951284B1, “[…] DERIVATIVES” (priority 1996, dated 1998).
Where a name gives a salt, the structure may show the parent alone.

Test system: mice
Assay: Closed head injury in mice: reference memory, Morris water maze
Type: in vivo
Settings: Morris water maze after CHI, compared to saline treated controls (Figure 1)
Description: Morris Water Maze Teat: the water maze consists of a circular aluminium pool, 1m in diameter and 60cm in depth, filled with water to a depth of 17.5cm. The hidden goal platform is a glass vessel (15cm diameter x 16. 5cm height) placed upside down at a fixed location in the pool, 1cm below the surface of the water. The water temperature is maintained at 24°C and the pool is always placed in the same position in the room to provide the same extra-maze cues. Prior to CHI (as described in Example 3 above), mice were given 3 trials per day for 5 consecutive days to establish a baseline performance - measured as the latency to find the platform from the same start location. Commencing 24hr after CHI, mice were retested daily for 2 weeks in 3 trials per day.
It appears that immediately post-CHI mice forget the location of the goal.

C#CCNC(C)Cc1cccc(OC(=O)N(C)CC)c1 (stereo not drawn) [Compound 17, 3-(N-Me,N-Etcarbamyloxy)α-methyl, N-propargyl phenethylamine.HCl]
latency to find the platform: reduction in latency
